This is an account of results in US9387246B2, “Treatment methods for rheumatoid arthritis” (priority 2013, dated 2016).

The test system of one data set is VCAM-1. The settings on record: literature 1990-2012, ACR abstracts 2006-2013; cited from earlier work.
Another data set has as its system CRP. The conditions noted are these: literature 1990-2012, ACR abstracts 2006-2013; cited from earlier work.
The subject of the next data set is TNFR1. Details: key: Y: biomarkers that are known to be positively affected by a treatment method (i.e., biomarkers that are known to have a favorable response to a treatment method); N: biomarkers that are not known to be positively affected by a treatment method (i.e., biomarkers that are known to have an unfavorable response to a treatment method); biomarkers that are known to be positively affected by a ORENCIA, the brand name of Atabacept. The conditions noted are these: literature 1990-2012, ACR abstracts 2006-2013; cited from earlier work.

Data set [1] deals with Rheumatoid arthritis patients. Put plainly: VECTRA DA test: serum levels of biomarkers, % elevation over control (InFoRM study). In kind it is in vivo, human. The source says:
(§1) VECTRA® DA test is a multi-biomarker disease activity (MBDA) blood test sold by Crescendo Bioscience. The test provides a quantitative assessment of rheumatoid arthritis disease activity in patients by using twelve protein biomarkers—Vascular Cell Adhesion Molecule 1 (VCAM-1), Epidermal Growth Factor (EGF), Vascular Endothelial Growth Factor A (VEGF-A), Interleukin-6 (IL-6), Tumor Necrosis Factor Receptor Type 1 (TNFR1), Matrix Metalloproteinase-1 (MMP-1), Matrix Metalloproteinase-3 (MMP-3), YKL-40, Leptin, Resistin, Serum Amyloid A (SAA), and C-Reactive Protein (CRP). The twelve biomarkers in VECTRA® DA test are relevant to key aspects of the pathophysiology of RA. Li et al., Curr. Med. Res. & Opin. 29(1): 85-92 (2013). The test measures the concentrations of the biomarkers and provides the concentrations and percentile (RA percentile) value for each biomarker.
The VECTRA DA MBDA test uses Meso Scale Discovery (MSD, Gaithersburg, Md., USA) sandwich immunoassay electrochemiluminescent technology to measure biomarker levels. Eastman et al., J. of Pharmaceutical and Biomedical Analysis 70: 415-424 (2012). In the immunoassay, capture antibodies are spotted on carbon electrodes in a planar array and detection antibodies are labeled with an electrochemiluminescent ruthenium reporter. Id. Upon electrical stimulation, light is produced from reporter molecules bound to the electrode to determine biomarker concentration.

The test system of another data set is YKL-40. The conditions noted are these: literature 1990-2012, ACR abstracts 2006-2013; cited from earlier work.
A further data set has as its system SAA. The conditions noted are these: literature 1990-2012, ACR abstracts 2006-2013; cited from earlier work.
The test system of the next data set is Leptin. The settings on record: literature; Leptin usable as biomarker only in patients with 15% or less body fat; cited from earlier work.
The test system of data set [2] is Rheumatoid arthritis patients. Put plainly: Change in VECTRA DA Score after treatment, longer duration (Example 3). The format is in vivo, human. The procedure: Sixteen rheumatoid arthritis patients were selected for treatment by treatment methods that were selected using the algorithm disclosed herein. Some patients were the same as the patients discussed under Example 2. Example 3, however, tracks patients' responses to treatment for a longer duration and uses VECTRA DA Score to determine effectiveness of the treatment.
VECTRA® DA test was conducted for each patient to determine serum levels of the all the biomarkers and VECTRA DA Score in each patient before treatment. The collection of patients closely resembles the random patient population available nationwide as shown by a comparison of the distribution of VECTRA DA Scores in FIG. 6, as noted under Example 2.
The patients were treated with the selected treatment methods and the post-treatment biomarker levels and VECTRA DA Score were determined by VECTRA® DA test. The change is VECTRA DA Score was determined to determine the change in disease activity and effectiveness of the selected treatment method.
The treatment method (one method or a combination of methods) was determined to be effective when the post-treatment disease activity was lower than the pre-treatment disease activity in the patient: when VECTRA DA Score was lower than the pre-treatment VECTRA DA Score. Specifically, the treatment method was determined to be effective when the post-treatment disease activity was at least 20% lower than the pre-treatment disease activity, or when the VECTRA DA Score is decreased to a lower disease activity level after the treatment (i.e., from high to moderate, or high to low, or moderate to low).

Another data set has as its system MMP-3. The conditions noted are these: literature 1990-2012, ACR abstracts 2006-2013; cited from earlier work.
In a further data set the test system is IL-6. The settings on record: literature 1990-2012, ACR abstracts 2006-2013; cited from earlier work.
In another data set the test system is VEGF-A. The conditions noted are these: literature 1990-2012, ACR abstracts 2006-2013; cited from earlier work.
The test system of data set [3] is Rheumatoid arthritis patients. In words: Treatment outcome (effectiveness, clinical course) of treatment methods (Example 2). In kind it is in vivo, human. The procedure:
(§2) The patients were treated with the selected treatment methods for at least five months and the post-treatment biomarker levels and VECTRA DA Score were determined by VECTRA® DA test along with CRP level and ESR. The change is VECTRA DA Score, CRP level and ESR was determined to determine the change in disease activity and effectiveness of the selected treatment method.

Data set [4] deals with Rheumatoid arthritis patients. In kind it is in vivo, human. The source says:
A treatment method administered to a patient may be a combination of one or more treatment methods.

The subject of the next data set is Resistin. The conditions noted are these: literature 1990-2012, ACR abstracts 2006-2013; cited from earlier work.
The test system of a further data set is MMP-1. The conditions noted are these: literature 1990-2012, ACR abstracts 2006-2013; cited from earlier work.
For data set [5], the system named is Rheumatoid arthritis patients. In words: Change in VECTRA DA Score after treatment (Example 2). The format is in vivo, human.
Source text: as §1, with “biomarker. […]” for “biomarker.”
as §2

[6] abbreviates: Patient 9, ACTEMRA from May 2012 not algorithm-selected, MTX added October 2012, based on ESR and CRP level.
[7] abbreviates: Patient 10, MTX (November 2011) and ORENCIA (August-December 2012) not algorithm-selected, HUMIRA December 2012-June 2013, based on VECTRA DA Score.

Where two headings read alike, the source gives them in different places. Some results are limits rather than exact numbers.

As for `CN(Cc1cnc2nc(N)nc(N)c2n1)c1ccc(C(=O)N[C@@H](CCC(=O)O)C(=O)O)cc1` [MTX, Methotrexate], in the data set on VCAM-1, the “VCAM-1 positively affected by treatment method” value is listed as “N”. The “CRP positively affected by treatment method” value in the data set on CRP is listed as “Y”. The “TNFR1 positively affected by treatment method” value in the data set with TNFR1 is listed as “N”. In [1] (Patient 5, August 2012), this compound registered a CRP elevated level of 67%, an IL-6 elevated level of 79%, a Leptin elevated level of 97% and an MMP-1 elevated level of 79%. Further, in data set [1] (Patient 5, August 2012), the MMP-3 elevated level was 95%, the Resistin elevated level was found to be 82%, the SAA elevated level was found to be 92% and the TNF-R1 elevated level was 79%. Also, in data set [1] (Patient 5, August 2012), the VCAM-1 elevated level is recorded as 97%, the VEGF-A elevated level is recorded as 48% and the YKL-40 elevated level came out at 94%. In data set [1] (Patient 10, April 2012), this compound came in with an SAA elevated level of 65%, a VEGF-A elevated level of 59% and a YKL-40 elevated level of 72%. Moreover, the “YKL-40 positively affected by treatment method” value in the data set on YKL-40 is on record as “N”. Moreover, the “SAA positively affected by treatment method” value with SAA was “Y”. In the data set on Leptin, the “Leptin positively affected by treatment method” value was “N”. The “Arthritis activity class of VECTRA DA Score” value (“Arthritis activity class” for short) in data set [2] (Patient 5, August 2012) was “high (a VECTRA DA Score of >44 reflects high disease activity)”. For the same compound, the “VECTRA DA Score increased by” value in data set [2] (Patient 5, August 2012 since March 2012 (5 months treatment only)) was “by 7 since”. Also, the “Arthritis activity class” value in [2] (Patient 10, April 2012) was “(moderate) (a VECTRA DA Score of >29 and ≦44 reflects moderate disease activity)”. The “VECTRA DA Score” value in data set [2] (Patient 10, April 2012, Methotrexate 10 mg/week) was “Score: 33”. For the same compound, the “MMP-3 positively affected by treatment method” value in the data set on MMP-3 was “Y”. Besides, the “IL-6 positively affected by treatment method” value in the data set with IL-6 is listed as “Y”. The “VEGF-A positively affected by treatment method” value in the data set with VEGF-A is “Y”. Moreover, the “Treatment Outcome” value in [3] (Patient 5, MTX alone from March 2012 not algorithm-selected, MTX and CIMZIA October 2012-June 2013, based on Sedimentation Rate and CRP Level) is given as “Not effective”. For the same compound, the “Treatment Outcome” value in [3] (Patient 8, MTX not algorithm-selected, ORENCIA December 2012-June 2013, based on VECTRA DA score) is listed as “Not effective”. In addition, in [3] (setting [6]), the “Treatment Outcome” value is on record as “Effective,”. Moreover, in [3] (setting [7]), the “Treatment Outcome” value is given as “Not effective”. Further, in data set [4] (human, in vivo), the “Adverse event for which dose was reduced to 10 mg/week” value is reported as “hair loss, April 2014”. Besides, in data set [4] (patient 16, January 2014), the “Treatment effectiveness (reason for discontinuation / earlier trial)” value is “without success”. For the same compound, the “Resistin positively affected by treatment method” value in the data set with Resistin is recorded as “N”. Moreover, the “MMP-1 positively affected by treatment method” value in the data set on MMP-1 is recorded as “N”.

On to Tocilizumab [TOCL], for which, in the data set with VCAM-1, the “VCAM-1 positively affected by treatment method” value is on record as “N”. Besides, in the data set on CRP, the “CRP positively affected by treatment method” value is listed as “Y”. Moreover, the “TNFR1 positively affected by treatment method” value with TNFR1 is on record as “N”. Besides, in data set [1] (Patient 6, February 2013), the IL-6 elevated level is >99%, the MMP-3 elevated level worked out at 61% and the Resistin elevated level is given as 70%. For the same compound, in data set [1] (Patient 6, October 2012), the IL-6 elevated level is recorded as >99%, the MMP-3 elevated level is 88%, the Resistin elevated level is given as 57% and the TNF-R1 elevated level stood at 45%. In addition, the “YKL-40 positively affected by treatment method” value in the data set with YKL-40 was “Y”. In addition, the “SAA positively affected by treatment method” value in the data set with SAA is given as “Y”. For the same compound, the “Leptin positively affected by treatment method” value with Leptin is “N”. Also, the “Arthritis activity class” value in [2] (Patient 6, February 2013) is “high (a VECTRA DA Score of >44 reflects high disease activity)”. Besides, the “Arthritis activity class” value in data set [2] (Patient 6, October 2012) is listed as “high (a VECTRA DA Score of >44 reflects high disease activity)”. Moreover, the “VECTRA DA Score” value in [2] (Patient 6, October 2012, ACTEMRA 4 mg/kg) is 54. Moreover, the “MMP-3 positively affected by treatment method” value in the data set with MMP-3 is “Y”. For the same compound, the “IL-6 positively affected by treatment method” value with IL-6 is listed as “Y”. In the data set with VEGF-A, the “VEGF-A positively affected by treatment method” value is listed as “Y”. The “Treatment Outcome” value in data set [3] (setting [6]) was “Not effective”. Besides, in data set [4] (Patient 6), the “Treatment Outcome” value is given as “Effective, based”. Also, in data set [4] (Patient 6, while on ACTEMRA), the “Conventional markers of inflammation - ESR and CRP level” value is “normalized”. Besides, in data set [4] (in vivo), the Adverse reaction result was “allergic reaction” and the “Toxicity for which the treatment was excluded” value is “bone marrow”. In the data set on Resistin, the “Resistin positively affected by treatment method” value is “N”. Besides, the “MMP-1 positively affected by treatment method” value in the data set on MMP-1 was “Y”. Moreover, the “VECTRA DA Score - Decreased by” value in [5] (Patient 6, treatment August 2012-June 2013, score February 2013) is listed as “Decreased by 24”.

Take Adalimumab [HUMIRA (TNF)]: in data set [3] (setting [7]), the “Treatment Outcome” value is reported as “Effective,”. The “VECTRA DA Score - Decreased by” value in data set [5] (Patient 10, treatment December 2012-June 2013, score May 2013) is recorded as “Decreased by 22”.
